Entries after “also recorded” stand apart in the source; their conditions may differ. Like-named read-outs stand apart in the source and are kept apart here.
How the values were obtained:
[1] = test system: ceramide production in rat primary astrocytes; assay: Degradation of sphingomyelin to ceramide (DAG kinase assay, HPTLC) in rat primary astrocytes; type: cell-based
Procedure: Lipid extraction Approximately 1.0×10^6 cells were exposed to different cytokines in the presence or absence of antioxidants for different periods and lipids were extracted according to the methods described by Welsh (1996).
Quantification of sphingomyelin by HPTLC and densitometry Sphingomyelin was separated from total lipid extracts by HPTLC (LPK-plates from Whatman Labsales, USA) as described (Ganser et al., 1988) for phospholipids with the modification, that the plate was overrun for 30 min during its development and was dried overnight in vacuum desicator. Sphingomyelin was quantitated by densitometric scanning using Imaging Densitometer (Model GS-670; Bio-Rad, USA) and software provided with the instrument by the manufacturer.
Quantification of ceramide levels by diacylglycerol kinase assay Ceramide content was quantified essentially according to Priess et al. using diacylglycerol (DAG) kinase and [γ-^32P]ATP (Priess et al., 1986). Briefly, dried lipids were solubilized in 20 μl of an octyl β-D-glucoside/cardiolipin solution (7.5% octyl β-D-glucoside, 5 mM cardiolipin in 1 mM DTPA) by sonication in a sonicator bath. […] The labeled ceramide 1-phosphate was resolved with a solvent system consisting of methyl acetate: n-propanol:chloroform:methanol:0.25% KCl in water:acetic-acid (100:100:100:40:36:2). A standard sample of ceramide was phosphorylated under identical conditions and developed in parallel. […] Quantification of ceramide 1-phosphate was carried out by autoradiography and densitometric scanning using Imaging Densitometer (Model GS-670; Bio-Rad, USA). Values are expressed either as arbitrary units (absorbance) or as percent change.
Lipid Extraction Approximately 1.0×10^6 cells were exposed to different cytokines in the presence or absence of antioxidants for different periods, and lipids were extracted according to the methods described by Welsh (1996).
Quantification of Sphingomyelin by High Performance TLC and Densitometry Sphingomyelin was separated from total lipid extracts by high performance TLC (LHPK plates from Whatman) as described by Ganser et al. (1988) for phospholipids with the following modification: the plate was overrun for 30 min during its development and was dried overnight in vacuum desiccator. Sphingomyelin was quantitated by densitometric scanning using Imaging Densitometer (model GS-670; Bio-Rad), and software was provided with the instrument by the manufacturer.
Quantification of Ceramide Levels by Diacylglycerol Kinase Assay Ceramide content was quantified essentially according to Priess et al. (1986) using diacylglycerol (DAG) kinase and [γ-^32P]ATP. Briefly, dried lipids were solubilized in 20 μl of an octyl β-D-glucoside/cardiolipin solution (7.5% octyl β-D-glucoside, 5 mM cardiolipin in 1 mM DTPA) by sonication in a sonicator bath. […] The labeled ceramide-1-phosphate was resolved with a solvent system consisting of methyl acetate:n-propyl alcohol:chloroform:methanol, 0.25% KCl in water:acetic acid (100:100:100:40:36:2). A standard sample of ceramide was phosphorylated under identical conditions and developed in parallel. […] Quantification of ceramide-1-phosphate was carried out by autoradiography and densitometric scanning using Imaging Densitometer (model GS-670; Bio-Rad). Values are expressed either as arbitrary units (absorbance) or as percent change.

[2] = test system: cultured skin fibroblasts of X-ALD; assay: β-oxidation of lignoceric acid in cultured skin fibroblasts of X-ALD; type: cell-based, human; conditions: etomoxir, inhibitor of mitochondrial β-oxidation
[3] = test system: iNOS; assay: Expression of iNOS protein (immunoblot) and mRNA (Northern) in rat primary astrocytes; type: cell-based
Procedure: Immunoblot analysis for iNOS Following 24 h incubation in the presence or absence of stimuli by different cytokines or LPS, macrophages were scraped off, washed with Hank's buffer, and homogenized in 50 mM Tris-HCl (pH 7.4) containing protease inhibitors ([…] PMSF, 5 μg/ml aprotinin, 5 μg/ml pepstatin A, and 5 μg/ml leupeptin). After electrophoresis the proteins were transferred onto a nitrocellulose membrane, and the iNOS band was visualized by immunoblotting with antibodies against mouse macrophage iNOS and [^125I]-labeled protein A (Singh et al., 1988).
RNA isolation, Northern blot analysis, and reverse-transcriptase coupled polymerase chain reaction (RT-PCR) Stimulated peritoneal macrophages were taken out from culture dishes directly by adding Ultraspec-II RNA reagent (Biotecx Laboratories Inc.) and total RNA was isolated according to the manufacturer's protocol. For northern blot analyses, 20 μg of total RNA was electrophoresed on 1.2% denaturing formaldehyde-agarose gels, electrotransferred to Hybond-Nylon Membrane (Amersham) and hybridized at 68° C. with ^32P-labeled cDNA probe using Express Hyb hybridization solution (Clontech) as described by the manufacturer. […]; After hybridization filters were washed two to three times in solution I (2×SSC, 0.05% SDS) for 1 h at room temperature followed by solution II (0.1×SSC, 0.1% SDS) at 50° C. for another hour. The membranes were then dried and exposed to X-ray film (Kodak). The same filters were stripped and rehybridized with probes for GAPDH. The relative mRNA content for iNOS was measured after scanning the bands with a Biorad (Model GS-670) imaging densitometer.
Immunoblot analysis for iNOS Following 24 h incubation in the presence or absence of different stimuli, cells were scraped off, washed with Hank's buffer, and homogenized in 50 mM Tris-HCl (pH 7.4) containing protease inhibitors. After electrophoresis the proteins were transferred onto a nitrocellulose membrane, and the iNOS band was visualized by immunoblotting with antibodies against mouse macrophage iNOS and [^125I]-labeled protein A.
RNA isolation and Northern blot analysis Cells were taken out from culture dishes directly by adding Ultraspec-II RNA reagent (Biotecx Laboratories Inc.) and total RNA was isolated according to the manufacturer's protocol. For Northern blot analyses, 20 μg of total RNA was electrophoresed on 1.2% denaturing formaldehyde-agarose gels, electrotransferred to Hybond-Nylon Membrane (Amersham) and hybridized at 68° C. with ^32P-labeled cDNA probe using Express Hyb hybridization solution (Clontech) as described by the manufacturer. […]; After hybridization filters were washed two or three times in solution I (2×SSC, 0.05% SDS) for one hour at room temperature followed by solution II (0.1×SSC, 0.1% SDS) at 50° C. for another hour. The membranes were then dried and exposed with X-ray films (Kodak). The same filters were stripped and rehybridized with probes for GAPDH. The relative mRNA content for iNOS was measured after scanning the bands with a Biorad (Model GS-670) imaging densitometer.
Immunoblot analysis for iNOS After a 24 h incubation in the presence or absence of different stimuli, cells were scraped off, washed with Hank's buffer, and homogenized in 50 mM Tris-HCl (pH 7.4) containing protease inhibitors (1 mM PMSF, 5 μg/ml aprotinin, 5 μg/ml pepstatin A, and 5 μg/ml leupeptin). After electrophoresis the proteins were transferred onto a nitrocellulose membrane, and the iNOS band was visualized by immunoblotting with antibodies against mouse macrophage iNOS and [^125I]-labeled protein A.
RNA isolation and Northern blot analysis Cells were taken out from culture dishes directly by adding Ultraspec-II RNA reagent (Biotecx Laboratories Inc., Houston, Tex.), and total RNA was isolated according to the manufacturer's protocol. […]

[4] = test system: NO production in rat resident macrophages; assay: LPS-/cytokine-induced NO production (nitrite) in rat resident peritoneal macrophages; type: cell-based
Procedure: Isolation of Rat Macrophages and Induction of NO Production Resident macrophages were obtained from rats by peritoneal lavage with sterile RPMI 1640 medium containing 1% fetal bovine serum and 100 μg/ml gentamicin (Wang et al., 1995). Cells were washed three times with RPMI 1640 at 4° C. All cell cultures were maintained at 37° C. in a humidified incubator containing 5% CO2 in air. Macrophages, at a concentration of 2×10^6/ml in RPMI 1640 medium containing L-glutamine and gentamicin, were added in volumes of 800 μl to a 35 mm plate. After 1 h, nonadherent cells were removed by washing and 800 μl of serum-free RPMI 1640 medium with various stimuli were added to the adherent cells. After 24 h incubation in 5% CO2 in air at 37° C., the culture supernatants were transferred to measure NO production (Geng et al., 1995; Wang et al., 1995).
Isolation of rat macrophages and induction of NO production Resident macrophages were obtained from rat by peritoneal lavage with sterile RPMI 1640 medium containing 1% fetal bovine serum and 100 μg/ml gentamicin as described herein. Cells were washed three times with RPMI 1640 at 4° C. All cell cultures were maintained at 37° C. in a humidified incubator containing 5% CO2 in air. Macrophages at a concentration of 2×10^6/ml in RPMI 1640 medium containing L-glutamine and gentamicin were added in volumes of 800 μl to a 35 mm plate. After 1 h, nonadherent cells were removed by washing and 800 μl of serum-free RPMI 1640 medium with various stimuli were added to the adherent cells. After incubation in 5% CO2 in air at 37° C., culture supernatants were transferred to measure NO production.
Isolation of rat macrophages and induction of NO production Resident macrophages were obtained from rat by peritoneal lavage with sterile RPMI 1640 medium containing 1% FBS and 100 μg/ml gentamicin. Cells were washed three times with RPMI 1640 at 4° C., and were maintained at 37° C. in a humidified incubator containing 5% CO2 in air. Macrophages at a concentration of […] in RPMI 1640 medium containing L-glutamine and gentamicin were added in volumes of 800 μl to a 35-mm plate. After 1 h, nonadherent cells were removed by washing, and 800 μl of serum-free RPMI 1640 medium with various stimuli was added to the adherent cells. After 24 h the culture supernatants were transferred to measure NO production.
Protein was measured (Bradford, 1976).

[5] = 100 μM mevalonate, 200 μM farnesyl pyrophosphate, 10 μM ubiquinone or cholesterol

## Nc1nc[nH]n1 [ATZ, aminotriazole]
[1]
  increase in ceramide production: more than 5 fold

## CCOC(=O)[C@@]1(CCCCCCOc2ccc(Cl)cc2)CO1 [Etomoxir]
[2]
  effect on stimulated lignoceric acid β-oxidation: had no effect on cAMP-mediated stimulation of lignoceric acid β-oxidation; also recorded: had no effect on lovastatin- or NaPA-mediated stimulation of lignoceric acid β-oxidation

## CC(C)=CCC/C(C)=C/CC/C(C)=C/COP(=O)(O)OP(=O)(O)O [FPP, farnesyl pyrophosphate]
[3]
  rescue of the inhibition of iNOS expression and NF-kβ activation by lovastatin / NaPA: substantially reversed the inhibitory effect of lovastatin

## OO [H2O2, hydrogen peroxide]
[1]
  increase in ceramide production: about 7 fold

## CNC(=N)NCCC[C@H](N)C(=O)O [L-NMA, N^G-methyl-L-arginine]
[4]; LPS 1.0 μg/ml, 24 h, NAC 20 mM 2 h before LPS, NMA 0.1 mM, arginase 100 units/ml with LPS
  Nitrite: 15.8 ± 2.2 nmol/mg Protein^24h
[4]; of LPS (1.0 μg/ml)-induced nitrite, NAC 20 mM 2 h before, NMA 0.1 mM, arginase 100 units/ml with LPS
  Inhibition (%): 87%

## CC(=O)O [acetate]
[1]
  degradation of sphingomyelin to ceramide / ceramide production: had no effect on the degradation of SM to ceramide

## CCCCS(=N)(=O)CCC(N)C(=O)O [buthione (S,R)-sulfoximine]
[1]
  degradation of sphingomyelin to ceramide / ceramide production: also decreased the level of GSH and induced the production of ceramide

## C[C@@]12C(=O)OC(=O)[C@]1(C)[C@H]1CC[C@@H]2O1 [cantharidin]
[3]; LPS 1.0 μg/ml
  LPS-mediated induction of iNOS protein and mRNA: enhanced the LPS-mediated induction of iNOS protein and mRNA
[4]; LPS 1.0 μg/ml, 24 h
  LPS-induced NO production: inhibited the LPS-induced NO production in rat peritoneal macrophages

## CC(C)CCC[C@@H](C)[C@H]1CC[C@H]2[C@@H]3CC=C4C[C@@H](O)CC[C@]4(C)[C@H]3CC[C@]12C [cholesterol]
[3]; [5]
  rescue of the inhibition of iNOS expression and NF-kβ activation by lovastatin / NaPA: did not prevent the inhibitory effect of lovastatin and NaPA

## CC(O)(CCO)CC(=O)O (centres unmarked) [mevalonate]
[3]
  rescue of the inhibition of iNOS expression and NF-kβ activation by lovastatin / NaPA: substantially reversed the inhibitory effect of lovastatin

## COC1=C(OC)C(=O)C(C/C=C(\C)CC/C=C(\C)CC/C=C(\C)CC/C=C(\C)CC/C=C(\C)CC/C=C(\C)CC/C=C(\C)CC/C=C(\C)CC/C=C(\C)CCC=C(C)C)=C(C)C1=O [ubiquinone]
[3]; [5]
  rescue of the inhibition of iNOS expression and NF-kβ activation by lovastatin / NaPA: did not prevent the inhibitory effect of lovastatin and NaPA

## Microcystin
[3]
  LPS-mediated induction of iNOS protein and mRNA: enhanced the LPS-mediated induction of iNOS protein and mRNA

Reference: patent publication US8507219B2, “Method of treating inflammation with statins” (MUSC Foundation for Research Development, priority 1997, dated 2013)
